Legend:
Assay in all cases: ErbB2 mutant inhibition assay (33P-ATP radiometric kinase assay, Reaction Biology)
Type in all cases: biochemical
ErbB2 (D769H) = target: T1, ErbB2 (D769H) (Homo sapiens, UniProt P04626, D769H); conditions: ATP 10 μM, 20 min preincubation, 2 h reaction; read-out: Compound IC50 ErbB2 (D769H)
T1 construct: purchased Reaction Biology Corporation
Method: (§1) The reagents and materials used in the assay, as well as the testing procedure, were provided and carried out by Reaction Biology Corporation. The specific steps were as follows: • 1. […] Conditions for the enzyme reaction assay: The test compounds were incubated for 20 minutes, ATP concentration was set at 10 μM, and the total duration of the enzyme reaction was 2 hours. • 3. Experimental steps for the enzyme reaction
(§2) The enzyme reaction buffer was 20 mM HEPES at a pH of 7.5, 10 mM MgCl2, 2 mM MnCl2, 1 mM EGTA, 0.01% Brij35, 0.02 mg/mL BSA, 0.1 mM Na3VO4, 2 mM DTT, and 1% DMSO.
(§3) Kinase activity %=(Remaining kinase activity of test compound samples/Kinase activity of solvent control samples (DMSO))*100%
(§4) The IC50 of the compound was calculated by fitting the kinase activity % at different compound concentrations.

ErbB2 (V777L) = target: T2, ErbB2 (V777L) (Homo sapiens, UniProt P04626, V777L); conditions: ATP 10 μM, 20 min preincubation, 2 h reaction; read-out: Compound IC50 ErbB2 (V777L)
T2 construct: purchased Reaction Biology Corporation
Method: as §1, §2, §3, §4

ErbB2 (D769Y) = target: T3, ErbB2 (D769Y) (Homo sapiens, UniProt P04626, D769Y); conditions: ATP 10 μM, 20 min preincubation, 2 h reaction; read-out: Compound IC50 ErbB2 (D769Y)
T3 construct: purchased Reaction Biology Corporation
Method: as §1, §2, §3, §4

ErbB2 (R896C) = target: T4, ErbB2 (R896C) (Homo sapiens, UniProt P04626, R896C); conditions: ATP 10 μM, 20 min preincubation, 2 h reaction; read-out: Compound IC50 ErbB2 (R896C)
T4 construct: purchased Reaction Biology Corporation
Method: as §1, §2, §3, §4

T3 sequence (P04626 23-1255 D769Y): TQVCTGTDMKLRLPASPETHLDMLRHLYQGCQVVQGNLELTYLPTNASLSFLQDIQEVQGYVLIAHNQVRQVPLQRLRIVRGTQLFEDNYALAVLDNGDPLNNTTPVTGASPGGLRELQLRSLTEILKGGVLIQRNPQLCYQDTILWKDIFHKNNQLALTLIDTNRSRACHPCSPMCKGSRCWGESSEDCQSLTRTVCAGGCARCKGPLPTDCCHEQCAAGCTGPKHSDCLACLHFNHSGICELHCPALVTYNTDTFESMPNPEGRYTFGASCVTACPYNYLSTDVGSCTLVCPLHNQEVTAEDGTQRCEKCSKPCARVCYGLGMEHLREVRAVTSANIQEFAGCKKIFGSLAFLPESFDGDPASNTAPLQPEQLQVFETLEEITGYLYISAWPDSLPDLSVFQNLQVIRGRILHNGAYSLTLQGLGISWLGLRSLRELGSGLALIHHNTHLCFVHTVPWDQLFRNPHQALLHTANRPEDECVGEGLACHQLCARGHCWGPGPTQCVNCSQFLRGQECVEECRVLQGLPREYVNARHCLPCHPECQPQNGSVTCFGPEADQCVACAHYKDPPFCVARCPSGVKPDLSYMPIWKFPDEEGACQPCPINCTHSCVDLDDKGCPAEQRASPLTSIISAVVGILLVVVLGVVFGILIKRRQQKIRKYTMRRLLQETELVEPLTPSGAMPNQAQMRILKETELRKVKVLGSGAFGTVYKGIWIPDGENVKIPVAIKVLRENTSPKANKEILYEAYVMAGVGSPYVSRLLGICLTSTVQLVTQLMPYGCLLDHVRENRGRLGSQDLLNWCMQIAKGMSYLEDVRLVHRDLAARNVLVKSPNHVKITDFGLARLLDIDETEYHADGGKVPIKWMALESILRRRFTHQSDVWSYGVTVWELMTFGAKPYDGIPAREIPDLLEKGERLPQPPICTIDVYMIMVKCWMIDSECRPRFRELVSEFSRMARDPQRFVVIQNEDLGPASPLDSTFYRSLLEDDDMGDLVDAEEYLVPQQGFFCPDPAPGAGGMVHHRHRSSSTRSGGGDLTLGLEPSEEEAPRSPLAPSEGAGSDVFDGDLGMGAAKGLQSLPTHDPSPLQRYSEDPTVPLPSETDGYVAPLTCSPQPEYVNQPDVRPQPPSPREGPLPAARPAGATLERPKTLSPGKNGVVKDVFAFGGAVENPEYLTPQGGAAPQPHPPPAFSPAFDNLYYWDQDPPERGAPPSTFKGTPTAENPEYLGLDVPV
T2 sequence (P04626 23-1255 V777L): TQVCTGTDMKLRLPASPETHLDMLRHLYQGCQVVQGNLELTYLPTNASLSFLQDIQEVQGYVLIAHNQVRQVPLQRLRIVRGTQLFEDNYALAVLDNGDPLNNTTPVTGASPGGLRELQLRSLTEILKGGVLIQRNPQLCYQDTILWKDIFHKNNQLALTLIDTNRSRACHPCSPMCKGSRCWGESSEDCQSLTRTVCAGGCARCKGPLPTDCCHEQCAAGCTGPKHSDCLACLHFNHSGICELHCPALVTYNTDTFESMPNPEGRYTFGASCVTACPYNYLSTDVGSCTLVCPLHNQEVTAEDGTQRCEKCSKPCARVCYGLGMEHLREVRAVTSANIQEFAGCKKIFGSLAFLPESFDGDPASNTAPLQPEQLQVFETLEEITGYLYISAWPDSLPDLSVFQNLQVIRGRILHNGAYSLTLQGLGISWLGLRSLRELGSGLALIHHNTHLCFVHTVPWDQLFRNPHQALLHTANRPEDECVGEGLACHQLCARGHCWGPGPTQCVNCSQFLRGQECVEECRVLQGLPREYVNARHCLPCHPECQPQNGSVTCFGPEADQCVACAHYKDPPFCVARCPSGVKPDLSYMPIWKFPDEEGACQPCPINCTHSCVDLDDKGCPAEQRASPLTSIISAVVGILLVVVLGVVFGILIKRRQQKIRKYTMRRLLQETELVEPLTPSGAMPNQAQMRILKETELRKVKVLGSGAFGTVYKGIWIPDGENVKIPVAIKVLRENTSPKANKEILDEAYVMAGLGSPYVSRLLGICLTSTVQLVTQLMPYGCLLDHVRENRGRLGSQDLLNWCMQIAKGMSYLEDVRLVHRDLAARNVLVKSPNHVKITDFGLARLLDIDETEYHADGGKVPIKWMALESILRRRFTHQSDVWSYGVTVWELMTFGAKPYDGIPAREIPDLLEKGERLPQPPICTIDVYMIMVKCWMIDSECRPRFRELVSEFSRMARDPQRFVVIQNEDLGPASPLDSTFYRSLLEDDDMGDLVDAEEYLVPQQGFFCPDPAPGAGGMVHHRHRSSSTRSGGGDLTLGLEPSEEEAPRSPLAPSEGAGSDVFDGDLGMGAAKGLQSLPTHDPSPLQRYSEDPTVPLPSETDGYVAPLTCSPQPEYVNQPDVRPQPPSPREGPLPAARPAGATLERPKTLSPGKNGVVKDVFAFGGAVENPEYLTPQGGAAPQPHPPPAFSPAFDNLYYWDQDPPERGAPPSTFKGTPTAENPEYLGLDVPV
T1 sequence (P04626 23-1255 D769H): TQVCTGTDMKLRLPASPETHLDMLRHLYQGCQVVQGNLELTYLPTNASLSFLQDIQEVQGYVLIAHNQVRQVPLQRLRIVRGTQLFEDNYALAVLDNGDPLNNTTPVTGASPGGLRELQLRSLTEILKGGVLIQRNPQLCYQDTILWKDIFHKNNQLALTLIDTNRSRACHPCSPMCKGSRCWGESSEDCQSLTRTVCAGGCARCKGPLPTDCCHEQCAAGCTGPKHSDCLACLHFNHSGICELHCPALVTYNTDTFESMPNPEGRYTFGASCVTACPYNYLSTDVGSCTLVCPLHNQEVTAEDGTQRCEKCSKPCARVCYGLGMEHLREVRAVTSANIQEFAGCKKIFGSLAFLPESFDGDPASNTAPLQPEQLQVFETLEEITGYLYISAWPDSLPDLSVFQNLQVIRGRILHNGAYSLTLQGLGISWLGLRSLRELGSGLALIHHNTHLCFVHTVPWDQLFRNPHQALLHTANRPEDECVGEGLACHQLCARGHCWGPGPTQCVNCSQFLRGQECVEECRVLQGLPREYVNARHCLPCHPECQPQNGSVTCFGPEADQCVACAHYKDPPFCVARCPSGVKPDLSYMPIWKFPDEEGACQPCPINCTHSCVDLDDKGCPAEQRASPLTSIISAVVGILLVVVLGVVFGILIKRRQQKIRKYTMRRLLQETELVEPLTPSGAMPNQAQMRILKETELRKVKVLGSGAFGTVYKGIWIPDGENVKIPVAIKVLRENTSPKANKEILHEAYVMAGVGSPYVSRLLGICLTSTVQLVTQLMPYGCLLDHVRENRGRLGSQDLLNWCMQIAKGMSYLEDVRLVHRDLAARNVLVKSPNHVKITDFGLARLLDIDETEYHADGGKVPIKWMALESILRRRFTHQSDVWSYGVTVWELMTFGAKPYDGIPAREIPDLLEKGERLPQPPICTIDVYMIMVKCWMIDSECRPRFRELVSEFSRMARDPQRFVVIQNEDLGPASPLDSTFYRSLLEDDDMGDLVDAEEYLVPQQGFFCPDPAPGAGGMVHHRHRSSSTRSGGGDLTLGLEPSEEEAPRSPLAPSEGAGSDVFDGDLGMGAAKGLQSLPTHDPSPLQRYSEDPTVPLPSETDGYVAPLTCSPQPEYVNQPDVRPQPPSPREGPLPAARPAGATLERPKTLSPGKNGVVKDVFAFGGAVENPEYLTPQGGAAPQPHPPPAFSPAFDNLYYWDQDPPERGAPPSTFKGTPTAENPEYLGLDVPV
T4 sequence (P04626 23-1255 R896C): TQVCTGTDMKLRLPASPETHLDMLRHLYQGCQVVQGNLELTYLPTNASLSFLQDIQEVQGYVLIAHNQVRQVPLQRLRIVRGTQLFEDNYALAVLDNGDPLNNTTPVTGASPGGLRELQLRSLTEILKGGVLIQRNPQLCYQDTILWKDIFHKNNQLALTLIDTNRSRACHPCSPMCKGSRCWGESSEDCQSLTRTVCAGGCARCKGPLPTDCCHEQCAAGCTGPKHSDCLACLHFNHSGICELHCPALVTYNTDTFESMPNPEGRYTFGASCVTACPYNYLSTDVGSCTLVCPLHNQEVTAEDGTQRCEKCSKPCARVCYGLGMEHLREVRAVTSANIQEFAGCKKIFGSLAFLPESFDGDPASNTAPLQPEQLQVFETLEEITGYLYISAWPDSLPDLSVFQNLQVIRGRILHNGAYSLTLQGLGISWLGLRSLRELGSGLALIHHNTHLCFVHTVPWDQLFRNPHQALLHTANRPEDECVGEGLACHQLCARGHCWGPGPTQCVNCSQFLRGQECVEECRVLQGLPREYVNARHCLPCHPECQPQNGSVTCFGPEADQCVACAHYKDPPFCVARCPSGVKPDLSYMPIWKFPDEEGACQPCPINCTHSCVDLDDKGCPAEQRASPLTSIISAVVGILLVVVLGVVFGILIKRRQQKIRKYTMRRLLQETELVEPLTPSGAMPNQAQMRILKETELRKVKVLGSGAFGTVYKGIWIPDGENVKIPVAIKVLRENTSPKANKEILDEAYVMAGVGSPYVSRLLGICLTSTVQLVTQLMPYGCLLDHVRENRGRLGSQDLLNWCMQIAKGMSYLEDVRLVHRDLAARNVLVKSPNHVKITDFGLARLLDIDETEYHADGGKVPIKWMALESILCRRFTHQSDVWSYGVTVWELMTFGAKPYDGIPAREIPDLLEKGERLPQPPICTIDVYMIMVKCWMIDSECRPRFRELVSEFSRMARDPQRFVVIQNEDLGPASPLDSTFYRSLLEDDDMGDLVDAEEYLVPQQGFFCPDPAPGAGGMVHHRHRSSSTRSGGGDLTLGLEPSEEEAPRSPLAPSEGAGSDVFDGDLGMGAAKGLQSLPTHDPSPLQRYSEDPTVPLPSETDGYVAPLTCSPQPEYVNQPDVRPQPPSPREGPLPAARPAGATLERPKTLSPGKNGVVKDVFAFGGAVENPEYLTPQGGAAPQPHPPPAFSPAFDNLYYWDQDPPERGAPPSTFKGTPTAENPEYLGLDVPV

Row | IC50 (ErbB2 (D769H)) [pM] | IC50 (ErbB2 (V777L)) [pM] | IC50 (ErbB2 (D769Y)) [pM] | IC50 (ErbB2 (R896C)) [pM] | SMILES
1 | 1340 | 889 | 2060 | 1940 | CCOc1cc2ncc(C#N)c(Nc3ccc(Oc4cc5nncn5cn4)c(C)c3)c2cc1NC(=O)/C=C/[C@H]1CCCN1C
2 | 563 | 471 | 413 | 1870 | CCOc1cc2ncnc(Nc3ccc(Oc4cc5nncn5cn4)c(C)c3)c2cc1NC(=O)/C=C/[C@H]1CCCN1C
3 | < 152 | < 152 | < 152 | < 152 | CCOc1cc2ncnc(Nc3ccc(Oc4ccn5ncnc5c4)c(C)c3)c2cc1NC(=O)/C=C/[C@H]1CCCN1C

The next lines start with the molecule.

Row | SMILES | IC50 (ErbB2 (D769H)) [pM] | IC50 (ErbB2 (V777L)) [pM] | IC50 (ErbB2 (D769Y)) [pM] | IC50 (ErbB2 (R896C)) [pM]
4 | Cc1cc(Nc2ncnc3ccc(NC(=O)/C=C/C4COCCN4)cc23)ccc1Oc1cc2nncn2cn1 (centres unmarked) | 720 | 438 | 892 | 973
5 | Cc1cc(Nc2ncnc3ccc(NC(=O)/C(F)=C/[C@H]4CCCN4C)cc23)ccc1Oc1cc2nncn2cn1 | 1690 | 2410 | 811 | 4840

— US20240197737A1, “APPLICATION OF COMPOUND IN PREPARATION OF INHIBITORY DRUG TARGETING ERBB2 MUTANT” (SHANGHAI PHARMACEUTICALS HOLDING CO., LTD., priority 2021, published 2024)
